Test results published in ChEMBL document CHEMBL1152085, “Novel 3-deoxy-3-descladinosyl-6-O-methyl erythromycin a analogues. Synthesis and in vitro activity” (1997).
Converted amounts (≈) assume the structure as drawn.

What was measured:
Assay type in all cases: functional
Streptococcus pyogenes [1] = assay: Tested in vitro for minimum inhibitory concentration to produce antibacterial activity against Streptococcus pyogenes PIU 2548
Escherichia coli [2] = assay: Tested in vitro for minimum inhibitory concentration to produce antibacterial activity against Escherichia coli JUHL
Staphylococcus aureus [3] = assay: Tested in vitro for minimum inhibitory concentration to produce antibacterial activity against Staphylococcus aureus ATCC 6538P
Streptococcus equinus [4] = assay: Tested in vitro for minimum inhibitory concentration to produce antibacterial activity against Streptococcus bovis A-5169
Staphylococcus aureus [5] = assay: Tested in vitro for minimum inhibitory concentration to produce antibacterial activity against Staphylococcus aureus NCTC-10649M in presence of erythromycin A
Enterococcus faecium [6] = assay: Tested in vitro for minimum inhibitory concentration to produce antibacterial activity against Enterococcus faecium ATCC 8043 in presence of erythromycin A
Staphylococcus aureus [7] = assay: Tested in vitro for minimum inhibitory concentration to produce antibacterial activity against Staphylococcus aureus A5177
Escherichia coli [8] = assay: Tested in vitro for minimum inhibitory concentration to produce antibacterial activity against Escherichia coli SS
Streptococcus pyogenes [9] = assay: Tested in vitro for minimum inhibitory concentration to produce antibacterial activity against Streptococcus pyogenes 930 in presence of erythromycin A
Staphylococcus aureus [10] = assay: Tested in vitro for minimum inhibitory concentration to produce antibacterial activity against Staphylococcus aureus A5177 in presence of erythromycin A
[11] = tested on: Staphylococcus epidermidis; assay: Tested in vitro for minimum inhibitory concentration to produce antibacterial activity against Staphylococcus epidermidis 3519
Enterococcus faecium [12] = assay: Tested in vitro for minimum inhibitory concentration to produce antibacterial activity against Enterococcus faecium ATCC 8043
Staphylococcus aureus [13] = assay: Tested in vitro for minimum inhibitory concentration to produce antibacterial activity against Staphylococcus aureus A-5278
Streptococcus pyogenes [14] = assay: Tested in vitro for minimum inhibitory concentration to produce antibacterial activity against Streptococcus pyogenes PIU 2548 in presence of erythromycin A
Staphylococcus aureus [15] = assay: Tested in vitro for minimum inhibitory concentration to produce antibacterial activity against Staphylococcus aureus ATCC 6538P in presence of erythromycin A
Escherichia coli [16] = assay: Tested in vitro for minimum inhibitory concentration to produce antibacterial activity against Escherichia coli JUHL in presence of erythromycin A
Streptococcus pyogenes [17] = assay: Tested in vitro for minimum inhibitory concentration to produce antibacterial activity against Streptococcus pyogenes EES61 in presence of erythromycin A
Streptococcus pyogenes [18] = assay: Tested in vitro for minimum inhibitory concentration to produce antibacterial activity against Streptococcus pyogenes 930
Staphylococcus aureus [19] = assay: Tested in vitro for minimum inhibitory concentration to produce antibacterial activity against Staphylococcus aureus CMX 642A in presence of erythromycin A
Staphylococcus aureus [20] = assay: Tested in vitro for minimum inhibitory concentration to produce antibacterial activity against Staphylococcus aureus 1775 in presence of erythromycin A
Staphylococcus aureus [21] = assay: Tested in vitro for minimum inhibitory concentration to produce antibacterial activity against Staphylococcus aureus CMX 553 in presence of erythromycin A
Streptococcus pyogenes [22] = assay: Tested in vitro for minimum inhibitory concentration to produce antibacterial activity against Streptococcus pyogenes EES61
Staphylococcus aureus [23] = assay: Tested in vitro for minimum inhibitory concentration to produce antibacterial activity against Staphylococcus aureus CMX 642A
Staphylococcus aureus [24] = assay: Tested in vitro for minimum inhibitory concentration to produce antibacterial activity against Staphylococcus aureus A-5278 in presence of erythromycin A
Staphylococcus aureus [25] = assay: Tested in vitro for minimum inhibitory concentration to produce antibacterial activity against Staphylococcus aureus NCTC-10649M
Streptococcus agalactiae [26] = assay: Tested in vitro for minimum inhibitory concentration to produce antibacterial activity against Streptococcus agalactiae CMX 508 in presence of erythromycin A
Streptococcus agalactiae [27] = assay: Tested in vitro for minimum inhibitory concentration to produce antibacterial activity against Streptococcus agalactiae CMX 508
Streptococcus equinus [28] = assay: Tested in vitro for minimum inhibitory concentration to produce antibacterial activity against Streptococcus bovis A-5169 in presence of erythromycin A
[29] = tested on: Staphylococcus epidermidis; assay: Tested in vitro for minimum inhibitory concentration to produce antibacterial activity against Staphylococcus epidermidis 3519 in presence of erythromycin A
Escherichia coli [30] = assay: Tested in vitro for minimum inhibitory concentration to produce antibacterial activity against Escherichia coli SS in presence of erythromycin A
Staphylococcus aureus [31] = assay: Tested in vitro for minimum inhibitory concentration to produce antibacterial activity against Staphylococcus aureus 1775
Staphylococcus aureus [32] = assay: Tested in vitro for minimum inhibitory concentration to produce antibacterial activity against Staphylococcus aureus CMX 553

| SMILES | MIC (Streptococcus pyogenes [1]) [µg/mL] | MIC (Escherichia coli [2]) [µg/mL] | MIC (Staphylococcus aureus [3]) [µg/mL] | MIC (Streptococcus equinus [4]) [µg/mL] | MIC (Staphylococcus aureus [5]) [µg/mL] | MIC (Enterococcus faecium [6]) [µg/mL] | MIC (Staphylococcus aureus [7]) [µg/mL] | MIC (Escherichia coli [8]) [µg/mL] | MIC (Streptococcus pyogenes [9]) [µg/mL] | MIC (Staphylococcus aureus [10]) [µg/mL] | MIC [11] [µg/mL] | MIC (Enterococcus faecium [12]) [µg/mL] | MIC (Staphylococcus aureus [13]) [µg/mL] | MIC (Streptococcus pyogenes [14]) [µg/mL] | MIC (Staphylococcus aureus [15]) [µg/mL] | MIC (Escherichia coli [16]) [µg/mL] | MIC (Streptococcus pyogenes [17]) [µg/mL] | MIC (Streptococcus pyogenes [18]) [µg/mL] | MIC (Staphylococcus aureus [19]) [µg/mL] | MIC (Staphylococcus aureus [20]) [µg/mL] | also measured |
| --- | --- | --- | --- | --- | --- | --- | --- | --- | --- | --- | --- | --- | --- | --- | --- | --- | --- | --- | --- | --- | --- |
| CC[C@H]1OC(=O)[C@H](C)C[C@H](C)[C@@H](O[C@@H]2O[C@H](C)C[C@H](N(C)C)[C@H]2O)[C@](C)(OC)C[C@@H](C)C(=O)[C@H](C)[C@H]2OC(=O)O[C@@]21C | 0.78 (≈ 1.3 µM) | > 100 | 6.2 (≈ 10.3 µM) | 0.2 (≈ 0.333 µM) | 0.2 | 0.05 | 3.1 (≈ 5.17 µM) | 0.78 (≈ 1.3 µM) | > 100 | 3.1 | 6.2 (≈ 10.3 µM) | 0.78 (≈ 1.3 µM) | > 100 | 6.2 | 0.2 | 50 | 0.01 | > 100 | 0.2 | > 100 | MIC (Staphylococcus aureus [21]): 0.2 µg/mL; MIC (Streptococcus pyogenes [22]): 0.2 µg/mL (≈ 0.333 µM); MIC (Staphylococcus aureus [23]): 3.1 µg/mL (≈ 5.17 µM); MIC (Staphylococcus aureus [24]): > 100 µg/mL; MIC (Staphylococcus aureus [25]): 6.2 µg/mL (≈ 10.3 µM); MIC (Streptococcus agalactiae [26]): 0.01 µg/mL; MIC (Streptococcus agalactiae [27]): 0.2 µg/mL (≈ 0.333 µM); MIC (Streptococcus equinus [28]): 0.05 µg/mL; MIC [29]: 0.2 µg/mL; MIC (Escherichia coli [30]): 0.2 µg/mL; MIC (Staphylococcus aureus [31]): > 100 µg/mL; MIC (Staphylococcus aureus [32]): 3.1 µg/mL (≈ 5.17 µM) |
| CC[C@H]1OC(=O)[C@H](C)C[C@H](C)[C@@H](O[C@@H]2O[C@H](C)C[C@H](N(C)C)[C@H]2O)[C@](C)(OC)C[C@@H](C)C(=O)/C(C)=C/[C@]1(C)O | > 100 | > 100 | > 100 | > 100 | 0.39 | 0.2 | > 100 | > 100 | 12.5 | 3.1 | > 100 | > 100 | > 100 | 12.5 | 0.39 | 50 | 0.01 | > 100 | 0.39 | > 100 | MIC (Staphylococcus aureus [21]): 0.39 µg/mL; MIC (Streptococcus pyogenes [22]): 12.5 µg/mL (≈ 22.5 µM); MIC (Staphylococcus aureus [23]): > 100 µg/mL; MIC (Staphylococcus aureus [24]): > 100 µg/mL; MIC (Staphylococcus aureus [25]): > 100 µg/mL; MIC (Streptococcus agalactiae [26]): 0.02 µg/mL; MIC (Streptococcus agalactiae [27]): 25 µg/mL (≈ 45 µM); MIC (Streptococcus equinus [28]): 0.2 µg/mL; MIC [29]: 0.39 µg/mL; MIC (Escherichia coli [30]): 0.78 µg/mL; MIC (Staphylococcus aureus [31]): > 100 µg/mL; MIC (Staphylococcus aureus [32]): > 100 µg/mL |
| CC[C@H]1OC(=O)[C@H](C)C[C@H](C)[C@@H](O[C@@H]2O[C@H](C)C[C@H](N(C)C)[C@H]2O)[C@](C)(OC)C[C@@H](C)C(=O)[C@H](C)[C@@H](O)[C@]1(C)O | 3.1 (≈ 5.4 µM) | > 100 | 25 (≈ 43.6 µM) | 0.78 (≈ 1.36 µM) | 0.2 | 0.05 | 25 (≈ 43.6 µM) | 0.78 (≈ 1.36 µM) | > 100 | 1.56 | 50 (≈ 87.1 µM) | 25 (≈ 43.6 µM) | > 100 | 6.2 | 0.1 | 50 | 0.02 | > 100 | 0.2 | > 100 | MIC (Staphylococcus aureus [21]): 0.2 µg/mL; MIC (Streptococcus pyogenes [22]): 1.56 µg/mL (≈ 2.72 µM); MIC (Staphylococcus aureus [23]): 25 µg/mL (≈ 43.6 µM); MIC (Staphylococcus aureus [24]): > 100 µg/mL; MIC (Staphylococcus aureus [25]): 6.2 µg/mL (≈ 10.8 µM); MIC (Streptococcus agalactiae [26]): 0.02 µg/mL; MIC (Streptococcus agalactiae [27]): 3.1 µg/mL (≈ 5.4 µM); MIC (Streptococcus equinus [28]): 0.02 µg/mL; MIC [29]: 0.1 µg/mL; MIC (Escherichia coli [30]): 0.1 µg/mL; MIC (Staphylococcus aureus [31]): > 100 µg/mL; MIC (Staphylococcus aureus [32]): 25 µg/mL (≈ 43.6 µM) |
